# From patent publication US20090317376A1, “Compositions And Methods For Lipo Modeling” (Georgetown University MEDICAL SCHOOL, priority 2005, published 2009)
# Entries after “also recorded” stand apart in the source; their conditions may differ.
# System: human fat pads
# Assay: Human fat xenograft in nude athymic mice
# Type: in vivo
# Experimental: In addition to augmenting mouse fat with NPY, human fat from elective liposuction surgery is harvested by using a closed syringe system (Cell Friendly, Tulip Medical) to minimize cell trauma during harvest and aliquots of 100 μl are injected subcutaneously into a nude athymic mouse. Slow release pellets of NPY or placebo are subcutaneously implanted within 1 cm of the fat pad, replaced 2 weeks later, and then harvested after 4 weeks of formation of fat pads. Ultrasound is used to monitor vascularization of fat pads at various time points. The time-course of expression of the NPY system and its downstream mediators is determined in relation to innervation, vascularization and fat growth (by MRI, ultrasound, IHC). Dependence of adipogenesis on angiogenesis is assessed by comparing non-specific, antiangiogenic therapy with the blockade of the NPY-Y2 angiogenic pathway. […] This observation is confirmed by ultrasound (FIG. 7, bottom).
# Human fat implantation: The processed fat for injection is loaded into syringes. The nude mice are anesthetized and slow release pellets inserted as described above. A small nick is made with a pair of sterile scissors in the close proximity of the pellets and 100 μl of fat is implanted using an 18 gauge Coleman infiltration cannula (Byron Medical) attached to the syringe. If necessary, the skin wound is closed with medical cyanoacrylate and the mouse is allowed to recover. The fat pad growth is monitored and the sample harvested as described above.
# Ultrasonography: The mice are anesthetized by inhalation of isoflurane 1-3% in oxygen, hair removed with depilatory cream and a sterile water based ultrasonic gel is applied to the area (Aquasonic gel—Visual Sonics). The mouse is placed in the Visual Sonics mouse holder containing a thermostatically controlled heating pad to maintain mouse body temperature. The imaging is performed with a small animal ultrasound system, Visual Sonics Vivo 660 (55 MHz).
# 1. Cell culture: 3T3-L1 preadipocyte cells, (gift from Dr. Lane,^34) were cultured in DMEM high glucose media with glutamine, 10% calf sera (Gemini Bioproducts), d-Biotin (8 μg/ml) and Pantothenate (8 μg/ml) (Sigma). SK-N-BE(2) neuroblastoma cells (ATCC) were cultured in EMEM/F12K with 10% fetal bovine sera (FBS). HMVEC endothelial cells (Cambrex) were cultured in endothelial cell growth media (Cambrex). All media was supplemented with 100 units/ml penicillin, 100 μg/ml streptomycin and […] amphotericin. 2. […] After 24 h, cells were harvested in a 96-well harvester (Tomtec) and counted in a Betaplate Liquid Scintillation Counter (Wallac). […] After 48 hr, the cells were counted with a Beckman Coulter Counter. […]
# [1] = NPY pellet vs placebo pellet, FIG. 7
substance,measurement,setting,value
neuropeptide Y [NPY],xenograft vascularization (density of CD31+ vessels),NPY pellet 1 μg/14 days alongside the xenograft,increased
same,xenograft 3-month survival,"NPY pellet 1 μg/14 days, placebo-treated grafts underwent resorption",increased
same,areas of more dense necrotic tissue (ultrasound),[1],more in NPY-treated than placebo-treated
same,"vacuolization / holes in fat pads (ultrasound, IHC)",[1],more holes in the placebo-pellet treated fat pads; also recorded: more numerous in placebo-treated than NPY-treated fat pads
